In publication PMC8213057, “Targeting ALK2: An Open Science Approach to Developing Therapeutics for the Treatment of Diffuse Intrinsic Pontine Glioma” (Journal of Medicinal Chemistry, 2020):

Assays:
TRKA = TRKA (Homo sapiens, UniProt P04629); conditions: 1 μM; Run 1, Run 2
DMPK = target: T1, DMPK (Homo sapiens, UniProt Q09013); test: biochemical; conditions: read-out: % enzyme activity, 1 μM; Run 1, Run 2
T1 sequence (Q09013 1-629): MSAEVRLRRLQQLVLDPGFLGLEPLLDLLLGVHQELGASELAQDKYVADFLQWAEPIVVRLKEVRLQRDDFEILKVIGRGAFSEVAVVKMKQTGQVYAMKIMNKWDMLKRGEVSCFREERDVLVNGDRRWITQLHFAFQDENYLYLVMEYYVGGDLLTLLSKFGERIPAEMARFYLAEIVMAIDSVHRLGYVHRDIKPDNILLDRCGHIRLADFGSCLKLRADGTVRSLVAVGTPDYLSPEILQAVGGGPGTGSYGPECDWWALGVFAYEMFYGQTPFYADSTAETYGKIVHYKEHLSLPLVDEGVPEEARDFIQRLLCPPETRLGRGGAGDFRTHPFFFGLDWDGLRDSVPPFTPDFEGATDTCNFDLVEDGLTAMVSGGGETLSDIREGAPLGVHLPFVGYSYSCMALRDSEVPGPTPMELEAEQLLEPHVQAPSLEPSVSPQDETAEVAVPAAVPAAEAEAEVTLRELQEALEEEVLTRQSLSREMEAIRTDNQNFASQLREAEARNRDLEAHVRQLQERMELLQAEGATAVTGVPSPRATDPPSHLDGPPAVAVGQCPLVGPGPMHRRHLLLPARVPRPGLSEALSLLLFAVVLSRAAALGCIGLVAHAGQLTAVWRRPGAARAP

MLK4 = MLK4 (Homo sapiens, UniProt Q5TCX8); conditions: 1 μM; Run 1, Run 2
TRKC = TRKC (Homo sapiens, UniProt Q16288); conditions: 1 μM; Run 1, Run 2
CDK16/cyclin Y (PCTAIRE) = CDK16/cyclin Y (PCTAIRE) (Homo sapiens, UniProt Q00536); test: biochemical; conditions: read-out: % enzyme activity, 1 μM; Run 1, Run 2
TLK2 = TLK2 (Homo sapiens, UniProt Q86UE8); test: biochemical; conditions: read-out: % enzyme activity, 1 μM; Run 1, Run 2
NEK8 = target: T2, NEK8 (Homo sapiens, UniProt Q86SG6); conditions: 1 μM; Run 1, Run 2
T2 sequence (Q86SG6 1-692): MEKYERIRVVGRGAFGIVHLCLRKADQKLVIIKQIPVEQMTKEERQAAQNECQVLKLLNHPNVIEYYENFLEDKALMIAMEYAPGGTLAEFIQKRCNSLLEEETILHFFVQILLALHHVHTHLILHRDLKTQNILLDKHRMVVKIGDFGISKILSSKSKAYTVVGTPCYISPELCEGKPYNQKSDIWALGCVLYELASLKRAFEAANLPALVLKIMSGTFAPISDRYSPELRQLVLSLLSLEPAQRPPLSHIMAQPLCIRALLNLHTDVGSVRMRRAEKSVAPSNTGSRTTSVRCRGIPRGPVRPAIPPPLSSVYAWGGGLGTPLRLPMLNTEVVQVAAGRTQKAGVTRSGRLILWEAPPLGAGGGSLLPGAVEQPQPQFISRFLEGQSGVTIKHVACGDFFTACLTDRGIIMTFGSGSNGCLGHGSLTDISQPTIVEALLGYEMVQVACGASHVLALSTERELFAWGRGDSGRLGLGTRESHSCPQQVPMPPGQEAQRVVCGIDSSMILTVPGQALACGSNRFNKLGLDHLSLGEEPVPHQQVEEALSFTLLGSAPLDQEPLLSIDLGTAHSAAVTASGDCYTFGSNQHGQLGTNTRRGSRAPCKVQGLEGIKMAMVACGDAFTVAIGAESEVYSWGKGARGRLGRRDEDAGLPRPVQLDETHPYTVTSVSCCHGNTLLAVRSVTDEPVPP

RIPK5 = target: T3, RIPK5 (Homo sapiens, UniProt Q6XUX3); conditions: 1 μM; Run 1, Run 2
T3 sequence (Q6XUX3 1-929): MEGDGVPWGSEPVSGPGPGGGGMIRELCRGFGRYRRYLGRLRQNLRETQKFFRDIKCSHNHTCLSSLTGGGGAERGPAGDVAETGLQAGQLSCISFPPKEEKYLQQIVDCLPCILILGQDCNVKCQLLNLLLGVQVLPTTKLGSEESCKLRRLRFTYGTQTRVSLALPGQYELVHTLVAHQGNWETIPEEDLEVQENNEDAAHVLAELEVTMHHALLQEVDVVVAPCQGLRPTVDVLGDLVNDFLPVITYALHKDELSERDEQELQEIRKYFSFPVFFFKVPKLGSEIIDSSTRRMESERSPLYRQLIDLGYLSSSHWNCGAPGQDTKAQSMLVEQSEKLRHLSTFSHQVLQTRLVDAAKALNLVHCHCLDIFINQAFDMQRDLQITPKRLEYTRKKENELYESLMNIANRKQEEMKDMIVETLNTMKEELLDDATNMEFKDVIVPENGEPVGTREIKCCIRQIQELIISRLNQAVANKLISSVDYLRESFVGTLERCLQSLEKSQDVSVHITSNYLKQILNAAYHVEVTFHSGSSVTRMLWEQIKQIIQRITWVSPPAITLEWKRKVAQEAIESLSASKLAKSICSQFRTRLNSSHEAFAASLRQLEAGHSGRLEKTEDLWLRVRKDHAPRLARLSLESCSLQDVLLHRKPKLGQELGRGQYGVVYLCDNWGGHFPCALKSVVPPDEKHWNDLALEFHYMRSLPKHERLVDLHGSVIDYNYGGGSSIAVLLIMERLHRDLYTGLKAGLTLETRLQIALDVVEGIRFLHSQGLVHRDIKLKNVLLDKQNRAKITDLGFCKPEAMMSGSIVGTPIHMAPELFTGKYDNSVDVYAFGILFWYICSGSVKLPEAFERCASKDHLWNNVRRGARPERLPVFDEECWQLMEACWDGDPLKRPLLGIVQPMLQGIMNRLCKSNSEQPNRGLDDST

CDK6/cyclin D3 = CDK6/cyclin D3 (Homo sapiens, UniProt Q00534); conditions: 1 μM; Run 1, Run 2
PAK5 = PAK5 (Homo sapiens, UniProt Q9P286); conditions: 1 μM; Run 1, Run 2
EPHA7 = EPHA7 (Homo sapiens, UniProt Q15375); test: biochemical; conditions: read-out: % enzyme activity, 1 μM; Run 1, Run 2
Sequence of EPHA7 (Q15375 28-998): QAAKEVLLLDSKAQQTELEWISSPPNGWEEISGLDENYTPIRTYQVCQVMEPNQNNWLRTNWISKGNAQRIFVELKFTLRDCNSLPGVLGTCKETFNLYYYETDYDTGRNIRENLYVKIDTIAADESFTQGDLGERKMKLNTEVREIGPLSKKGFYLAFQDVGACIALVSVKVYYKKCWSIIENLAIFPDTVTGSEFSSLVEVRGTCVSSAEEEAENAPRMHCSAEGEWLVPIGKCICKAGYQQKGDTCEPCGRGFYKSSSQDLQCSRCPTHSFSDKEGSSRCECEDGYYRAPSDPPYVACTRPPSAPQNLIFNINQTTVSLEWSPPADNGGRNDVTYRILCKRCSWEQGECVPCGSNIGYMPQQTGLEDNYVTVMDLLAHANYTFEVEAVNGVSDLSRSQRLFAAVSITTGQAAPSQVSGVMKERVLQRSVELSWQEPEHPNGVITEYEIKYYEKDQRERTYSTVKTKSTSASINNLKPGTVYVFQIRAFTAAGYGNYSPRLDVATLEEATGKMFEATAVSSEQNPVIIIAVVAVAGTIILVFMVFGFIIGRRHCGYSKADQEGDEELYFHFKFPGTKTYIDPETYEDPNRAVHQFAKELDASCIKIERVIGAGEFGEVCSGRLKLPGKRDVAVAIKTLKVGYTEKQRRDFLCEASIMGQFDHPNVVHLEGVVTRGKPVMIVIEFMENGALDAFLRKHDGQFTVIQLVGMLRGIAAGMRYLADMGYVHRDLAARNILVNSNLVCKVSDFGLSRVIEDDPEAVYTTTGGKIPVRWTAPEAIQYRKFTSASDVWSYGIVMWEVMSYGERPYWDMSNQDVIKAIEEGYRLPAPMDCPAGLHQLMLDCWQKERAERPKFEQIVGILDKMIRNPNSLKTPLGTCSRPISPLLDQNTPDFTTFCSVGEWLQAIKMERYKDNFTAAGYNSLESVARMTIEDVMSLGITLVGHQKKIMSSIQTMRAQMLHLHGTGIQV

Sequence of PAK5 (Q9P286 whole entry): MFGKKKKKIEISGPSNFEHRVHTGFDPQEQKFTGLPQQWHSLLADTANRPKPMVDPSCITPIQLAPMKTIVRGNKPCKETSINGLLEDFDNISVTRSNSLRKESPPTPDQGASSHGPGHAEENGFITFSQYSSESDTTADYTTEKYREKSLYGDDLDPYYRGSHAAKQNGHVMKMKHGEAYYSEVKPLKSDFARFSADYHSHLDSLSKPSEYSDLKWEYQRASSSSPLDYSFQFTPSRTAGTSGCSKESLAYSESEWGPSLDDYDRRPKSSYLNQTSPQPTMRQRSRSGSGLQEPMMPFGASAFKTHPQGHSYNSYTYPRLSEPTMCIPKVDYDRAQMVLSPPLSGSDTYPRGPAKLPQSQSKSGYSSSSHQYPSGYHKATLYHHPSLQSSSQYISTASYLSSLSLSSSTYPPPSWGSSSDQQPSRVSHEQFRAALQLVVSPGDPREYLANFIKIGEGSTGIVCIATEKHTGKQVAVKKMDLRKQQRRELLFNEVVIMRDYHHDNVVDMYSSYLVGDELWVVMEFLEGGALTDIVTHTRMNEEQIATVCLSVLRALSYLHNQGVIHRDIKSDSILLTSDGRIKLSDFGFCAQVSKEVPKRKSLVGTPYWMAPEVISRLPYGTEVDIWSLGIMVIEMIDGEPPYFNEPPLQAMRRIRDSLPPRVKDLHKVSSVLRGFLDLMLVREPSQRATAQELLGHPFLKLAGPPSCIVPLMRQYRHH
Sequence of CDK16/cyclin Y (PCTAIRE) (Q00536 whole entry): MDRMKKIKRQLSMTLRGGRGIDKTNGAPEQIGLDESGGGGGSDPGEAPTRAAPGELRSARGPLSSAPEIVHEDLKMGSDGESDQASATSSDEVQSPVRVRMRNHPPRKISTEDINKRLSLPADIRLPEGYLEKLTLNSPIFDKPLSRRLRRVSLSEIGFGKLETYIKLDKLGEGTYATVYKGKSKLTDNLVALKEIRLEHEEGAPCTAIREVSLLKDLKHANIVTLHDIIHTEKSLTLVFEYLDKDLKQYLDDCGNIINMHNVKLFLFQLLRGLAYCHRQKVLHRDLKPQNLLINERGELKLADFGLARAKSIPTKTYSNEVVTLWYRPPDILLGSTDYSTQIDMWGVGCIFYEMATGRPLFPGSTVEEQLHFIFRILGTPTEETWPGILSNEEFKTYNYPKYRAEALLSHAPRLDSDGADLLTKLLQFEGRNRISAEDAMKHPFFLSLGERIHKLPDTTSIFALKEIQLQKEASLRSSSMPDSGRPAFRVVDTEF
Sequence of CDK16/cyclin Y (PCTAIRE) (Q8ND76 whole entry partner): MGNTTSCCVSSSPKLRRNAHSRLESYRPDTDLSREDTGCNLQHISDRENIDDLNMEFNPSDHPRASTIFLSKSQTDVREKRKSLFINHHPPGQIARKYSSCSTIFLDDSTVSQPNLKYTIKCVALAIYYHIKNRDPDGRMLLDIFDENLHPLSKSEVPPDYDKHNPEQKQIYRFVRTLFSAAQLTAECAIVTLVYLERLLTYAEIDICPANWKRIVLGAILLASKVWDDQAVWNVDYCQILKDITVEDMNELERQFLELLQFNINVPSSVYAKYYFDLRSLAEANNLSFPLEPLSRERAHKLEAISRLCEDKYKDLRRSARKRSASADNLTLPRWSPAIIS
Sequence of MLK4 (Q5TCX8 whole entry): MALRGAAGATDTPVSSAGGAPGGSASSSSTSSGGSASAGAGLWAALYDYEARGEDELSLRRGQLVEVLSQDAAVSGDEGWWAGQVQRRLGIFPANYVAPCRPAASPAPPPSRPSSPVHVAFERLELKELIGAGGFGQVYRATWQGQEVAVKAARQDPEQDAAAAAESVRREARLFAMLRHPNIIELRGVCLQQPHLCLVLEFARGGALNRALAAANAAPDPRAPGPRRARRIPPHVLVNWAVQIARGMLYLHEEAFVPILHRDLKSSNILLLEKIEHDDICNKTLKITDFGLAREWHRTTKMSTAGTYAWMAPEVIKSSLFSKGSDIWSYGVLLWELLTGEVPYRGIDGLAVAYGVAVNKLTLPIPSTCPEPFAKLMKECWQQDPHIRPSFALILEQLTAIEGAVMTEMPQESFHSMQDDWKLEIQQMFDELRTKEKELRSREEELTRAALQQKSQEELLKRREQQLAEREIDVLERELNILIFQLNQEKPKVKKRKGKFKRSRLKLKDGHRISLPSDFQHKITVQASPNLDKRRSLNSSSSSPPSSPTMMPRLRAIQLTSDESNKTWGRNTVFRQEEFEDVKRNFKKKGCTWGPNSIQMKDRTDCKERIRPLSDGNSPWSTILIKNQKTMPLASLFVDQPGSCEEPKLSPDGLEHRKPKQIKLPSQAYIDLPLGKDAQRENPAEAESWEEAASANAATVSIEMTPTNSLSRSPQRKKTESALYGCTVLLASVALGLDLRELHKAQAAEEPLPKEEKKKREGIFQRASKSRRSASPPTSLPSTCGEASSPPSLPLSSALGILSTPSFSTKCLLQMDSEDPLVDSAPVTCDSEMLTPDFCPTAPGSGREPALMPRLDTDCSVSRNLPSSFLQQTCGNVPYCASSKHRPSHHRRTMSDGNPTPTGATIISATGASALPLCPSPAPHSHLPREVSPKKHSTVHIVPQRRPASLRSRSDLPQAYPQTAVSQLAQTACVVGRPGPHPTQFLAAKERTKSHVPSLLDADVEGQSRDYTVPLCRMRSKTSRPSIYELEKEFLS
Sequence of TRKA (P04629 33-796): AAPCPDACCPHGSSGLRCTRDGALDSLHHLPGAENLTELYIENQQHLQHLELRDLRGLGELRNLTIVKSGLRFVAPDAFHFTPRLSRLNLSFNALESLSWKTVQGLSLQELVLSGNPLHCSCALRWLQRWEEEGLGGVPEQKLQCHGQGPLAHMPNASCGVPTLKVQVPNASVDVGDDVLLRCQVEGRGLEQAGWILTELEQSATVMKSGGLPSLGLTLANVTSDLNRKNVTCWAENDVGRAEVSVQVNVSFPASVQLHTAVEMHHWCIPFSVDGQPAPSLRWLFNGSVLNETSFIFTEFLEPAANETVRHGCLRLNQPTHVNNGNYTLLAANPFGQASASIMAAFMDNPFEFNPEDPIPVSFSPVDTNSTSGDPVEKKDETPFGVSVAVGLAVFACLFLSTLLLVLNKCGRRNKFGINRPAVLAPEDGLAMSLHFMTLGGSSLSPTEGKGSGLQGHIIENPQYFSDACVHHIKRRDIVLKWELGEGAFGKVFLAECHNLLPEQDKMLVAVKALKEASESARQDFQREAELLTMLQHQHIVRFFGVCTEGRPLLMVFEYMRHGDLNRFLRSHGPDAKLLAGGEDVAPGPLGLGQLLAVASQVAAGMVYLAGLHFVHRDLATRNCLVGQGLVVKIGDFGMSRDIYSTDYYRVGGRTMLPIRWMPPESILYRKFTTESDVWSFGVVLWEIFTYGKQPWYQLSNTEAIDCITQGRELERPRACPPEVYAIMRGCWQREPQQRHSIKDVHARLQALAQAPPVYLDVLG
Sequence of CDK6/cyclin D3 (Q00534 whole entry): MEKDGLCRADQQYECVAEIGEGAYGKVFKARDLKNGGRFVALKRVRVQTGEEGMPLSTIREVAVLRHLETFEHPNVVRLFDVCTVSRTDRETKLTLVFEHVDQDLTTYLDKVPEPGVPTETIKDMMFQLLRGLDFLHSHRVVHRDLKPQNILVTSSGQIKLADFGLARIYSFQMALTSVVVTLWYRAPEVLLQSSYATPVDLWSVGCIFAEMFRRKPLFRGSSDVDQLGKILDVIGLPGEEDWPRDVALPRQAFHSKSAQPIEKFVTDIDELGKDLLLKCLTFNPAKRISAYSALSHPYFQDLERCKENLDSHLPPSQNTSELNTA
Sequence of CDK6/cyclin D3 (P30281 whole entry partner): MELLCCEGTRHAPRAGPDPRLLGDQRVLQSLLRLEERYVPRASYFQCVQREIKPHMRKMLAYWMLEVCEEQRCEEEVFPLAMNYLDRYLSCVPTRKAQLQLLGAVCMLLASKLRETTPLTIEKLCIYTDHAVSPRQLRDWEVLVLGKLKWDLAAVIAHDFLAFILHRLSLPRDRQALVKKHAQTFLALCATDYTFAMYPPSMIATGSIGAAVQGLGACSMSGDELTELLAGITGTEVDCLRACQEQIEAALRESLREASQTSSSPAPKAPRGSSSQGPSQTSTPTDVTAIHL

Structure (SMILES): COc1cc(-c2cncc(-c3ccc(N4CCN(C)CC4)cc3)c2C)cc(F)c1C(N)=O [Compound 26a, 2-Fluoro-6-methoxy-4-(4-methyl-5-(4-(4-methylpiperazin-1-yl)phenyl)pyridin-3-yl)benzamide]
- % enzyme activity (TRKA): 90.11%
- remaining activity at 1 µM (DMPK): 109%
- % enzyme activity (MLK4): 95.21%
- % enzyme activity (TRKC): 101.44%
- CYP inhibition (CYP2B6): > 50 µM
- remaining activity at 1 µM (CDK16/cyclin Y (PCTAIRE)): 92.8%
- remaining activity at 1 µM (TLK2): 96.6%
- % enzyme activity (NEK8): 98.06%
- % enzyme activity (RIPK5): 82.21%
- % enzyme activity (CDK6/cyclin D3): 86.25%
- % enzyme activity (PAK5): 92.74%
- remaining activity at 1 µM (EPHA7): 101%

Structure (SMILES): COc1cc(-c2cncc(-c3ccc(N4C[C@@H](C)N(C)[C@@H](C)C4)cc3)c2C)cc(F)c1C(N)=O [Compound 26c, 2-Fluoro-6-methoxy-4-(4-methyl-5-(4-((3R,5S)-3,4,5-trimethylpiperazin-1-yl)phenyl)pyridin-3-yl)benzamide]
- % enzyme activity (TRKA): 94.00%
- remaining activity at 1 µM (DMPK): 105%
- % enzyme activity (MLK4): 93.38%
- % enzyme activity (TRKC): 97.50%
- CYP inhibition (CYP2B6): > 50 µM
- remaining activity at 1 µM (CDK16/cyclin Y (PCTAIRE)): 91.6%
- remaining activity at 1 µM (TLK2): 93.3%
- % enzyme activity (NEK8): 106.54%
- % enzyme activity (RIPK5): 86.47%
- % enzyme activity (CDK6/cyclin D3): 102.19%
- % enzyme activity (PAK5): 94.99%
- remaining activity at 1 µM (EPHA7): 98.4%
